We go through two compounds from patent US8097282B2, “Methods of administering liquid droplet aerosols of nanoparticulate drugs” (Alkermes Pharma Ireland Limited, priority 1995, dated 2012).

The format of data set [1] is physicochemical. The protocol:
Nanoparticle Preparation and Characterization. Nanoparticles were prepared by media milling a suspension of 5% beclomethasone diproprionate in an aqueous solutions of PVA. Thus, the PVA was the surface modifier. The resulting particle size distribution was determined by dynamic light scattering. The particle size distribution was periodically monitored throughout the course of the study. […] In addition, particle size of the diluted dispersions remained constant for at least the duration of the experiment.

In data set [2] the test system is rabbit's pulmonary region. As to the kind of experiment: Computed tomography (CT) after administration of ultrasonically nebulized formulation to an intubated anesthetized rabbit. It is filed as in vivo. Particulars: ultrasonic nebulizer, several minutes, 30% suspension in 6% F108. The protocol:
(§1) In this example, a suspension of WIN 68209 (30%) in aqueous F108 surfactant (6%) was prepared by conventional roller milling techniques (jar mill, zirconium silicate beads, 7 days milling time). The mean particle size of the resultant distribution was 196 nm. The formulation was administered to an anesthetized rabbit as follows: Several mL of formulation was placed in an ultrasonic nebulizer (DeVilbiss AeroSonic™) which was connected in-line with a mechanical ventilator, terminating in a suitable endotracheal tube. The rabbit was then intubated and administered the nebulized formulation for several minutes.

A short description of data set [3]: Mean particle size of roller-milled WIN 68209 suspension. The data set is classed as physicochemical. Particulars: 30% suspension in aqueous F108 surfactant (6%), 7 days roller milling. The protocol: as §1

In the case of `CCC(=O)OCC(=O)[C@@]1(OC(=O)CC)[C@@H](C)C[C@H]2[C@@H]3CCC4=CC(=O)C=C[C@]4(C)[C@@]3(Cl)[C@@H](O)C[C@@]21C.O` [beclomethasone diproprionate, Beclomethasone diproprionate], in data set [1], the chemical stability result is reported as “neither was there any evidence of chemical instability” and the particle size stability entry is on record as “remained constant throughout the course of the study”. Also, the particle size distribution in data set [1] (nanoparticles in 2.5% polyvinyl alcohol) was 0.26±0.13 micrometer.

Regarding `CCOC(=O)C=C(COC(=O)c1c(I)c(NC(C)=O)c(I)c(NC(C)=O)c1I)OCC` [WIN 68209, benzoic acid, 3,5-bis(acetylamino)-2,4,6triodo-, 4(ethyl-3-ethoxy-2-butenoate) ester], the “CT scans of pulmonary region after nebulized administration” value in data set [2] is given as “showed the presence of radiopaque contrast agent in the region”. This compound also registered a mean particle size in data set [3] of 196 nm.
